Assay results as given in patent US20230364052A1, “COMPOSITION AND METHOD FOR TREATING AUTISM” (ZELIRA THERAPEUTICS OPERATIONS PTY LTD, priority 2017, published 2023).

What follows are compounds tested on patients with ASD diagnosis according to DSM-5 (assay: Retrospective review of ASD patients treated with Cannabis extracts; clinical response by CGI-I Scale). Settings: 66.6% of the ASD patients, treated before Cannabis therapy.
Format: in vivo
Description: A retrospective review of patients seen between June 2016 and March 2017 with ASD diagnosis according to DSM-5 (persistent deficits in social communication and interaction; restricted, repetitive patterns of behaviour, interests, or activities; symptoms present in the early developmental period; cause clinically significant impairment in social, occupational, or other areas of current functioning; not explained by intellectual disability nor global developmental delay) who were treated with Cannabis extracts for at least a 12-week period was completed. Demographic/clinical data, neuroimaging/EEG studies, vision, audition, genetic, and metabolic tests, parental/school/neuropsychological reports were reviewed.
The patients were administered with the cannabinoids sublingually (sublingual drops or “rice grain” method—see Example 1) twice daily (BID) for the duration of their treatment. The Cannabis extracts were obtained from the Moby Dick, Sharck, Durga mata or Nebula strains of Cannabis. For 10 out of the 21 patients included in the study, the total daily dosage of CBD and THC (measured by HPLC) and CBD:THC ratio were calculated and discussed further below.
The initial severity of symptoms presenting in the patients was assessed according to the criteria provided in the DSM-5, and are shown in FIG. 3.
The selected patients consisted of twenty (20) children and 1 adult (Mean age: 9 years, 10 month (range: 26 mo-22 yo), 15 males).
Mean follow-up after starting Cannabis therapy was 7.6 mo (range: 3-12 months). According to Cannabis strain, 71.5% of patients received balanced CBD:THC extracts; 19.0% high-CBD (e.g. Table 3; Formulations 1-3), and 9.5% high-THC extracts (e.g. Table 3; Formulation 6). The administered daily dose of CBD and THC was measured in 10 patients; 9 of them received […] and one high-THC extracts (Tables 2 and 3).

| Compound | response to previous treatment |
| --- | --- |
| O=C1CCc2ccc(OCCCCN3CCN(c4cccc(Cl)c4Cl)CC3)cc2N1 [aripiprazole] | without good response and/or with undesirable adverse events |
| COC(=O)C(c1ccccc1)C1CCCCN1 (stereo not shown) [methylphenidate] | without good response and/or with undesirable adverse events |
| OCCOCCN1CCN(C2=Nc3ccccc3Sc3ccccc32)CC1 [quetiapine] | without good response and/or with undesirable adverse events |
| Cc1nc2n(c(=O)c1CCN1CCC(c3noc4cc(F)ccc34)CC1)CCCC2 [risperidone] | without good response and/or with undesirable adverse events |
